In patent US20040002441A1, “Recombination modulators and methods for producing and using the same” (priority 2000, published 2004):
Several values for one entry are separate records, joined by “and”; a condition that tells them apart may be missing. Equal entries are not always repeated. Entries after “also recorded” stand apart in the source; their conditions may differ. Where no end group is shown, it is not given here.

How the values were obtained:
[1] = biological target: T1, bacteriophage λ Integrase (Int) (Escherichia phage lambda, UniProt P03700); test: Int-mediated bent-L recombination; type: biochemical; settings: for rank of potency at inhibiting recombination among individual peptides: FIG. 6A
T1 sequence (P03700 1-356): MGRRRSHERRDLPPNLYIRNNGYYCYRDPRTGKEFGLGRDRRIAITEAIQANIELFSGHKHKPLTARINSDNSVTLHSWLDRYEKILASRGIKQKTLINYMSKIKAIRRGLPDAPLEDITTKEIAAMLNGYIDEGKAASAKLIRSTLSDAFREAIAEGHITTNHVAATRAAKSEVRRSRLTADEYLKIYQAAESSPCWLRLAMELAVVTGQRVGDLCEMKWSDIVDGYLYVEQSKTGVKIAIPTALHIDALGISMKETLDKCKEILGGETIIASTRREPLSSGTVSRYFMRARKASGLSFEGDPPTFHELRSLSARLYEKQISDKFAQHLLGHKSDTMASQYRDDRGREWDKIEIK
T1 sequence (P0A6X7 1-99 partner): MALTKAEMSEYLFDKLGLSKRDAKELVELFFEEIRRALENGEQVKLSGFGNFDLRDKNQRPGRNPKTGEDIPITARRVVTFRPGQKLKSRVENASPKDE
T1 sequence (P0A6Y1 1-94 partner): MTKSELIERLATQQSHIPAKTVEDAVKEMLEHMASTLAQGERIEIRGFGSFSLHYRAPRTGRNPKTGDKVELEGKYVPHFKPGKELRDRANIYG
Description: Recombination Assays. Recombination assays were performed as described (Segall, 1998). Briefly, reactions were performed in a total volume of 10 μl and typically contained 1 nM radiolabeled att site as specified, 4 nM unlabeled att site, 50 ng salmon sperm DNA as nonspecific competitor, 44 mM Tris-Cl (pH 8.0), 60 mM KCl, 0.05 mg/ml bovine serum albumin, 7-11 mM Tris borate (pH 8.9), 5 mM spermidine, 1.3 mM EDTA, and 14.6% v/v glycerol. Int and IHF were present at 55 nM and 35 nM final concentrations respectively. During screening, peptide libraries were incubated with Int on ice for 20 minutes (in the same buffer), and the mix was then added to the rest of the recombination reaction. Final concentrations of peptides are specified for each experiment. Reactions were incubated for 60-90 minutes at 30° C. or 37° C., were stopped with 0.2× volume of 2% SDS, layered onto 5% polyacrylamide Tris/SDS gels, and electrophoresed in 1× Tris Tricine SDS buffer at 100 mA (Segall, 1998). Dried gels were visualized and quantitated using a Molecular Dynamics PhosphorImager.
Int Assays. Site-specific recombination and gel mobility shift assays were performed as described (Segall, 1998). Briefly, reactions were performed in a total volume of 10 or 20 μl and typically contained 1-2 nM radiolabeled att site as specified, 4 nM unlabeled att site, 100-300 ng salmon sperm DNA as nonspecific competitor, 44 mM Tris-Ci (pH 8.0), 60 mM KCl, 0.05 mg/ml bovine serum albumin, 7 mM Tris borate (pH 8.9), 5 mM spermidine, 1.3 mM EDTA, and 14.6% v/v glycerol. Any deviation from this formulation is noted in the figure legends. Gel shift reactions were incubated for 90 minutes at 37° C., layered without loading dyes onto 5% native polyacrylamide gel (29 acrylamide: 1 bis-acrylamide) and electrophoresed in 0.5× Tris borate EDTA buffer. Recombination reactions were stopped with 0.2× volume of 2% SDS, layered onto 5% polyacrylamide Tris/SDS gels, and electrophoresed in 1× Tris Tricine SDS buffer at 100 mA (Segall, 1998). Dried gels were visualized and quantitated using a Molecular Dynamics PhosphorImager. […]

[2] = biological target: bacteriophage λ Integrase (Int) (Escherichia phage lambda, UniProt P03700); test: Int-mediated excisive recombination; type: biochemical; settings: for IC50: IC50, inhibition of excisive recombination, excision pathway
Description: FIG. 11 depicts effect of peptide KWWCRW (diamonds) and peptide KWWWRW (squares) on the remaining 3 pathways of Int-mediated recombination. Recombination extents were normalized to the amount of recombination in untreated reactions and expressed as relative % recombination. A. Effect of peptides on integrative recombination (IC50 values for both peptides are roughly 0.2 μM). Reactions were assembled as for bent-L recombination except that they were incubated at room temperature, the substrates were a supercoiled plasmid (4.8 kb) carrying attP and ^32P labeled 91 bp PCR fragment encoding attB. […] The recombination substrates were PCR fragments encoding the attL (^32P-labeled) and attR sites. Reactions contained 50 NM Xis in addition to Int and IHF (37 nM), as well as 100 ng salmon sperm DNA, and were incubated at room temperature. C. Effect of peptides on straight-L recombination (IC50 values for peptide KWWCRW is 0.06 μM, while for peptide KWWWRW is slightly over 0.1 μM). Reactions were assembled as for bent-L recombination except that they were incubated at room temperature; the substrates were two PCR fragments, one of which was ^32P-labeled and 187 bp, the other of which was unlabeled and 496 bp.
Int Assays. Site-specific recombination and gel mobility shift assays were performed as described (Segall, 1998). Briefly, reactions were performed in a total volume of 10 or 20 μl and typically contained 1-2 nM radiolabeled att site as specified, 4 nM unlabeled att site, 100-300 ng salmon sperm DNA as nonspecific competitor, 44 mM Tris-Ci (pH 8.0), 60 mM KCl, 0.05 mg/ml bovine serum albumin, 7 mM Tris borate (pH 8.9), 5 mM spermidine, 1.3 mM EDTA, and 14.6% v/v glycerol. […] Dried gels were visualized and quantitated using a Molecular Dynamics PhosphorImager.
Excision reactions: Reactions were performed in 10 μL volume containing 20 mM Tris-HCl pH 8, 5 mM spermidine, 0.2 μg BSA, 75 ng to 0.15 μg salmon sperm DNA, 30 mM KCl, and TE (recombination mix). […] All gel images were visualized with a PhosphorImager (Molecular Dynamics) and quantitated with ImageQuant software (Molecular Dynamics).

[3] = biological target: T2, Vaccinia topoisomerase (type Ib) (Vaccinia virus, UniProt P68698); test: biochemical; settings: for IC50: IC50 for plasmid relaxation (activity reduced by one-half), pUC19 DNA
T2 construct: made in house; host or cells: Escherichia coli BL21 infected with bacteriophage λCE6

[4] = IC50, inhibition of bent-L recombination, bent-L pathway

In the case of WKHYNY-NH2 [Peptide 52, WKHYNY], the EC50 [1] is reported as 0.2 to 0.4 µM, the effect on recombination ([1]; 100 μM, the highest peptide concentration tested) is reported as “does not inhibit it completely; also recorded: does not inhibit recombination completely” and the IC50 ([1]; IC50, accumulation of Holliday junctions, bent-L pathway) is reported as 0.2 µM. The “peptide concentration at which the most HJs accumulate” value ([1]; bent-L pathway) was “about 2 μM”, the “rank of potency at causing the accumulation of HJs among individual peptides” value ([1]; dose response curves, FIG. 6B) was “most potent at causing the accumulation of HJs” and the EC50 [2] was 10 to 20 µM. For the same substance, the “effect on DNA relaxation” value ([3]; peptide concentrations up to 42 μM) was “no effect”.

KWWWRW-NH2 [Peptide 56, KWWWRW] was tested, and the IC50 [1, 4] was roughly 0.04 µM, the “rank of potency at inhibiting recombination among individual peptides” value ([1]; dose response curves) was “most potent at inhibiting recombination” and the IC50 [2] was roughly 1.1 µM. It also gave an IC50 [3] of 3 to 4 µM.

With KWWCRW-NH2 [Peptide 59, KWWCRW] the effect on recombination ([1]; 1 μM peptide) was “almost complete block on recombination”, the effect on recombination ([1]; 10 μM peptide) was “inhibited completely” and the IC50 [1, 4] was < 0.1 µM and 0.02 µM. For the same substance, the “rank of potency at inhibiting recombination among individual peptides” value ([1]; dose response curves) was “most potent at inhibiting recombination”, the IC50 [2] was 1.1 µM and ~1.1 µM and the IC50 [3] was 3.5 µM.
